This experiment addresses T1, VEGF-A/VEGFR1 (recombinant VEGF-A binding to immobilized VEGFR1) (Homo sapiens, UniProt P17948).
T1 construct: purchased R&D Systems
The experiment is described as follows: Competitive ELISA for VEGF-A/VEGFR-1 interaction. It is filed as biochemical. The method, then: The competitive ELISA based assay was performed by coating on 96-well plates a recombinant form of VEGFR-1 (R&D Systems, Minneapolis, MN, USA) at 0.5 µg/mL in PBS, 100 µL/well (the same volume was used for all subsequent steps), 16 h at room temperature. The plate was then blocked for 3 h at RT with 1% bovine serum albumin (BSA). Recombinant form of VEGF-A (R&D Systems) at 5 ng/mL in PBS containing 0.1% BSA, 5 mM EDTA, 0.004% Tween 20 (PBET) and 4% DMSO, was added alone or mixed with peptides at a concentration ranging between 0.04 and 100 µM, and incubated for 1 h at 37 °C followed by 1 h at RT. A biotinylated anti VEGF-A polyclonal antibody (R&D Systems) diluted in PBET at 150 ng/mL, was added to the wells and incubated for 1 h at 37 °C followed by 1 h at RT. […] The reaction was blocked by adding 30 µL/well of 4 N H2SO4 and the absorbance measured at 490 nm on a microplate reader (BenchMark, Biorad, Hercules, CA, USA).
A general note: ELISA stands for enzyme-linked immunosorbent assay.

[1] abbreviates: competitive ELISA, VEGFR-1 coated 0.5 µg/mL, VEGF-A 5 ng/mL, peptides 0.04-100 µM, PBET, 4% DMSO, 1 h 37 °C then 1 h RT, absorbance 490 nm, mean of two independent experiments in triplicate, read-out: IC50 of VEGF-A binding to VEGFR1 (concentration at 50% inhibition).

The source of these data is publication PMC7014271, “Oral Delivery of a Tetrameric Tripeptide Inhibitor of VEGFR1 Suppresses Pathological Choroid Neovascularization” (International Journal of Molecular Sciences, 2020).

Structures are written as SMILES. Counter-ions that a name gives are not always drawn. Like-named read-outs stand apart in the source and are kept apart here. Where only a bound is given, the exact number is not on record here.

T1 sequence (P17948 27-687 limits assumed, species assumed): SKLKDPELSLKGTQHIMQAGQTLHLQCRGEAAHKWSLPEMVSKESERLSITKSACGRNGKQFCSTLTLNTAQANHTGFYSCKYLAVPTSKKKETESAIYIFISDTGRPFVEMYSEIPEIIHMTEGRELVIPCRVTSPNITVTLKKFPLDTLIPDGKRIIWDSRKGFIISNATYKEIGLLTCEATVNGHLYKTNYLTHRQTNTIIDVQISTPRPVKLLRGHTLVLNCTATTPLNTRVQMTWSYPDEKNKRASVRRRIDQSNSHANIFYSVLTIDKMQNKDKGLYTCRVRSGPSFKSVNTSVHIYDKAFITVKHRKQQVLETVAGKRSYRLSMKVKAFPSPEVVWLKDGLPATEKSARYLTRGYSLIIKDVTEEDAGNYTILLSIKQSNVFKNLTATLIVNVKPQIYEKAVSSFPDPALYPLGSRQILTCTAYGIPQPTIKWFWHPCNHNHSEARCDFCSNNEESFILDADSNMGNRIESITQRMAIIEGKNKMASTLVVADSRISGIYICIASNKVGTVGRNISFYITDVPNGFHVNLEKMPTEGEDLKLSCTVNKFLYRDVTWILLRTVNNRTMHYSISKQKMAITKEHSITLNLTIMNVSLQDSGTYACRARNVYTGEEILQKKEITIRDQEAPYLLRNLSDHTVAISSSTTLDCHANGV

For `N[C@H](CCC(=O)O)C(=O)N[C@@H](CSCc1ccccc1)C(=O)N[C@@H](CC1CCCCC1)C(=O)NCCCC[C@H](NC(=O)[C@H](CC1CCCCC1)NC(=O)[C@H](CSCc1ccccc1)NC(=O)[C@H](N)CCC(=O)O)C(=O)NCCCC[C@H](NC(=O)[C@H](CCCCNC(=O)[C@H](CC1CCCCC1)NC(=O)[C@H](CSCc1ccccc1)NC(=O)[C@H](N)CCC(=O)O)NC(=O)[C@H](CC1CCCCC1)NC(=O)[C@H](CSCc1ccccc1)NC(=O)[C@H](N)CCC(=O)O)C(=O)NCC(=O)O` [iVR1-TFA, [D-Glu-L-Cys(Bzl)-L-Cha]4-Lys2-Lys-Gly], under setting [1], the IC50 was 9350 nM.

For `N[C@H](CCC(=O)O)C(=O)N[C@@H](CSCc1ccccc1)C(=O)N[C@@H](CC1CCCCC1)C(=O)NCCCC[C@H](NC(=O)[C@H](CC1CCCCC1)NC(=O)[C@H](CSCc1ccccc1)NC(=O)[C@H](N)CCC(=O)O)C(=O)NCCCC[C@H](NC(=O)[C@H](CCCCNC(=O)[C@H](CC1CCCCC1)NC(=O)[C@H](CSCc1ccccc1)NC(=O)[C@H](N)CCC(=O)O)NC(=O)[C@H](CC1CCCCC1)NC(=O)[C@H](CSCc1ccccc1)NC(=O)[C@H](N)CCC(=O)O)C(=O)NCC(=O)O` [iVR1, [D-Glu-L-Cys(Bzl)-L-Cha]4-Lys2-Lys-Gly], the IC50 (acetate counter-ion, VEGF-A/VEGFR1, read-out: IC50 of iVR1 after TFA replaced with acetate (rounded, discussion)) was less than 2000 nM. On to `N[C@H](CCC(=O)O)C(=O)N[C@@H](CSCc1ccccc1)C(=O)N[C@@H](CC1CCCCC1)C(=O)NCCCC[C@H](NC(=O)[C@H](CC1CCCCC1)NC(=O)[C@H](CSCc1ccccc1)NC(=O)[C@H](N)CCC(=O)O)C(=O)NCCCC[C@H](NC(=O)[C@H](CCCCNC(=O)[C@H](CC1CCCCC1)NC(=O)[C@H](CSCc1ccccc1)NC(=O)[C@H](N)CCC(=O)O)NC(=O)[C@H](CC1CCCCC1)NC(=O)[C@H](CSCc1ccccc1)NC(=O)[C@H](N)CCC(=O)O)C(=O)NCC(=O)O` [iVR1-Ac, [D-Glu-L-Cys(Bzl)-L-Cha]4-Lys2-Lys-Gly], for which, under setting [1], the IC50 came out at 1940 nM. Further, the “Increase in inhibitory activity (reduction of IC50) upon TFA to acetate exchange” value (iVR1-Ac vs iVR1-TFA, VEGF-A/VEGFR1 competitive ELISA) was “about five”.
